For 21 compounds, T/C results are on record in PubChem BioAssay AID200 (DTP/NCI, 2004).

Structures are written as SMILES. “And” between values parts separate entries of the source, which are not always exact repeats. Identical values can stand only once. Inconclusive results and toxic doses are left out.

In the experiment the test system is B6C3F1 mice, B16 melanoma ip, median survival T/C. The experiment in a line: NCI In Vivo Anticancer Drug Screen. Data for tumor model B16 Melanoma (intraperitoneal) in B6C3F1 mice. The note with it: endpoint: median survival time, higher = longer survival. As for the experimental part: The antitumor activity of compounds was measured in mice bearing transplantable tumors. Survival or tumor size were measured and the results are expressed as the measurement made in the treated group (T) divided by the measurement made in the vehicle treated control group (C). The tumor model used in this assay is B16 Melanoma (intraperitoneal) in B6C3F1 mice

[1] abbreviates: dose: 25.0 mg/kg/injection, schedule: Q01DX009 (ip), vehicle: saline with Tween-80.
[2] abbreviates: dose: 50.0 mg/kg/injection, schedule: Q01DX009 (ip), vehicle: saline with Tween-80.
[3] abbreviates: dose: 100.0 mg/kg/injection, schedule: Q01DX009 (ip), vehicle: saline with Tween-80.
The mark [4] stands for this setting: dose: 50.0 mg/kg/injection, schedule: Q01DX009 (ip), vehicle: Klucel (hydroxypropylcellulose) (HPC).
Where [5] appears, read: dose: 100.0 mg/kg/injection, schedule: Q01DX009 (ip), vehicle: Klucel (hydroxypropylcellulose) (HPC).
The mark [6] stands for this setting: dose: 200.0 mg/kg/injection, schedule: Q01DX009 (ip), vehicle: saline with Tween-80.
Setting [7] is: dose: 12.5 mg/kg/injection, schedule: Q01DX009 (ip), vehicle: saline.
[8] abbreviates: dose: 25.0 mg/kg/injection, schedule: Q01DX009 (ip), vehicle: saline.
Setting [9] is: dose: 50.0 mg/kg/injection, schedule: Q01DX009 (ip), vehicle: saline.
Setting [10] is: dose: 100.0 mg/kg/injection, schedule: Q01DX009 (ip), vehicle: saline.
Where [11] appears, read: dose: 6.25 mg/kg/injection, schedule: Q01DX009 (ip), vehicle: saline.
Where [12] appears, read: dose: 12.5 mg/kg/injection, schedule: Q01DX009 (ip), vehicle: water.
The mark [13] stands for this setting: dose: 200.0 mg/kg/injection, schedule: Q01DX009 (ip), vehicle: saline.
[14] abbreviates: dose: 400.0 mg/kg/injection, schedule: Q01DX009 (ip), vehicle: saline.

With `COc1cccc2c1C(=O)c1c(O)c3c(c(O)c1C2=O)C[C@@](O)(C(=O)CO)C[C@@H]3OC1CC(OC(C)=O)C(OC(C)=O)C(C)O1` (stereo partly specified), the T/C runs as follows: (dose: 6.25 mg/kg/injection, schedule: Q01DX009 (ip), vehicle: distilled water + Tween-80) 178 % of control; (dose: 12.5 mg/kg/injection, schedule: Q01DX001 (ip), vehicle: distilled water + Tween-80) 150 % of control; (dose: 25.0 mg/kg/injection, schedule: Q01DX001 (ip), vehicle: distilled water + Tween-80) 159 % of control and 195 % of control; (dose: 50.0 mg/kg/injection, schedule: Q01DX001 (ip), vehicle: distilled water + Tween-80) 176 % of control and 202 % of control.
Turning to `O=C(NC(CO)C(=O)O)OCc1ccccc1` (stereo unspecified), the T/C under setting [1] is 97 % of control; the T/C under setting [2] is 98 % of control; the T/C under setting [3] is 87 % of control and 102 % of control.
Take `CN1N=C(N)c2cn(C3OC(COP(=O)(O)O)C(O)C3O)c3ncnc1c23` (stereo unspecified): the T/C was 93 % of control (dose: 12.0 mg/kg/injection, schedule: Q01DX009 (ip), vehicle: Klucel (hydroxypropylcellulose) (HPC)); 93 % of control (dose: 25.0 mg/kg/injection, schedule: Q01DX009 (ip), vehicle: Klucel (hydroxypropylcellulose) (HPC)); 96 % of control under setting [4]; 91 % of control under setting [5].
As to `COc1cccc(C2NC(=O)c3c(n[nH]c3N)S2)c1O` (stereo unspecified), the T/C by setting is: (dose: 12.5 mg/kg/injection, schedule: Q01DX009 (ip), vehicle: saline with Tween-80) 101 % of control; under setting [1], 106 % of control; under setting [2], 104 % of control; under setting [3], 107 % of control; under setting [6], 95 % of control.
For `Nc1ccc(OCCCc2c(-c3ccccc3)nc(N)[nH]c2=O)cc1`, the T/C runs as follows: under setting [1], 121 % of control; under setting [2], 102 % of control; under setting [3], 118 % of control; under setting [6], 96 % of control.
Consider `CC12CC3OC(=O)C1COC14OC5(C2C1=O)C(O)(CCC1C4CC2OC24CC=CC(=O)C14C)C(=O)OC35C` (stereo unspecified), for which the T/C is, setting by setting: (dose: 7.5 mg/kg/injection, schedule: Q01DX009 (ip), vehicle: Klucel (hydroxypropylcellulose) (HPC)) 88 % of control; (dose: 15.0 mg/kg/injection, schedule: Q01DX009 (ip), vehicle: Klucel (hydroxypropylcellulose) (HPC)) 93 % of control; (dose: 30.0 mg/kg/injection, schedule: Q01DX009 (ip), vehicle: Klucel (hydroxypropylcellulose) (HPC)) 99 % of control.
Consider `CC(C)(C)C(=O)Oc1ccc(N=C(N)N)cc1`, for which the T/C is, setting by setting: under setting [7], 94 % of control; under setting [8], 94 % of control; under setting [9], 97 % of control; under setting [10], 92 % of control.
`O=C(NC(Cc1ccccc1)C(=O)O)OCc1ccccc1` (stereo unspecified): the T/C under setting [4] is 99 % of control and the T/C under setting [5] was 102 % of control.
For the compound `Cc1c2c(ccc3ccccc32)c[n+]2ccccc12`, the T/C is 89 % of control (dose: 1.56 mg/kg/injection, schedule: Q01DX009 (ip), vehicle: saline); 103 % of control (dose: 3.12 mg/kg/injection, schedule: Q01DX009 (ip), vehicle: saline); 105 % of control under setting [11]; 108 % of control under setting [7]; 108 % of control under setting [8].
Take `CC1CCC2C(C)C(=O)OC2C2(C)C(=O)C=CC12` (stereo unspecified): the T/C was 95 % of control (dose: 14.0 mg/kg/injection, schedule: Q01DX009 (ip), vehicle: Klucel (hydroxypropylcellulose) (HPC)); 95 % of control (dose: 22.0 mg/kg/injection, schedule: Q01DX009 (ip), vehicle: Klucel (hydroxypropylcellulose) (HPC)); 97 % of control (dose: 35.0 mg/kg/injection, schedule: Q01DX009 (ip), vehicle: Klucel (hydroxypropylcellulose) (HPC)); 97 % of control under setting [4].
With `O=C1C2C3C=CC(C2C(=O)N1CO)C1C2C(=O)N(CO)C(=O)C2C31` (stereo unspecified), the T/C was 102 % of control (dose: 6.25 mg/kg/injection, schedule: Q01DX009 (ip), vehicle: water); 109 % of control under setting [12]; 113 % of control (dose: 25.0 mg/kg/injection, schedule: Q01DX009 (ip), vehicle: water).
`Nc1c(Cl)[nH]cnc1=S`: the T/C runs as follows: under setting [8], 89 % of control; under setting [9], 105 % of control; under setting [10], 88 % of control and 91 % of control.
Take `O=C(O)C(O)C(O)C1[O][Sb][O]C1C(=O)O` (stereo unspecified): the T/C is 96 % of control under setting [11], 97 % of control under setting [7], 104 % of control under setting [8] and 107 % of control under setting [9].
On to `CO[C@H](/C(C)=C/C=C/C(C)=C/c1coc(C)n1)[C@H](C)[C@H]1C[C@@H](O)[C@@]2(C)O[C@H]2/C=C/[C@@H](C)[C@@H]2C[C@@H](CC(=O)O2)C[C@H]2O[C@@H]2C(=O)O1`, for which the T/C is 118 % of control and 98 % of control and 102 % of control (dose: 0.01 mg/kg/injection, schedule: Q01DX009 (ip), vehicle: Klucel (hydroxypropylcellulose) (HPC)); 94 % of control and 106 % of control (dose: 0.01 mg/kg/injection, schedule: Q01DX009 (ip), vehicle: other); 111 % of control and 112 % of control and 97 % of control (dose: 0.03 mg/kg/injection, schedule: Q01DX009 (ip), vehicle: Klucel (hydroxypropylcellulose) (HPC)); 110 % of control (dose: 0.03 mg/kg/injection, schedule: Q01DX009 (ip), vehicle: other); 154 % of control (dose: 0.1 mg/kg/injection, schedule: Q01DX009 (sc), vehicle: Klucel (hydroxypropylcellulose) (HPC)); 117 % of control (dose: 0.4 mg/kg/injection, schedule: Q01DX009 (sc), vehicle: Klucel (hydroxypropylcellulose) (HPC)).
Regarding `CC1Oc2cc3c(-c4c(O)cc(O)c5c(O)c6c(cc45)OC(C)C(C)C6=O)c(O)cc(O)c3c(O)c2C(=O)C1C` (stereo unspecified), the T/C is, setting by setting: (dose: 0.31 mg/kg/injection, schedule: Q01DX009 (ip), vehicle: suspension in saline) 117 % of control; (dose: 0.62 mg/kg/injection, schedule: Q01DX009 (ip), vehicle: suspension in saline) 101 % of control; (dose: 1.25 mg/kg/injection, schedule: Q01DX009 (ip), vehicle: suspension in saline) 109 % of control; (dose: 2.5 mg/kg/injection, schedule: Q01DX009 (ip), vehicle: suspension in saline) 116 % of control.
For `CC[C@](O)(C(=O)O)c1cc2n(c(=O)c1CO)Cc1cc3ccccc3nc1-2`, the T/C (dose: 0.75 mg/kg/injection, schedule: Q01DX009 (ip), vehicle: water) is 117 % of control; the T/C (dose: 1.5 mg/kg/injection, schedule: Q01DX009 (ip), vehicle: water) is 154 % of control; the T/C (dose: 3.0 mg/kg/injection, schedule: Q01DX009 (ip), vehicle: water) is 169 % of control.
`CNC=O`: the T/C was 101 % of control under setting [10], 108 % of control under setting [13] and 95 % of control under setting [14].
For `Cc1cc(O)c(Cl)cc1Cl`, in that order: 92 % of control, 87 % of control and 90 % of control.
On to `NCCC(=O)NC(Cc1cnc[nH]1)C(=O)O` (stereo unspecified), for which the T/C was 102 % of control under setting [9], 104 % of control under setting [10], 103 % of control under setting [13] and 104 % of control under setting [14].
With `C=C(C)C(=O)OC1C/C(CO)=C\C(O)C/C(C)=C/C2OC(=O)C(=C)C21` (stereo unspecified), the T/C by setting is: (dose: 1.25 mg/kg/injection, schedule: Q01DX009 (ip), vehicle: saline + alcohol) 101 % of control; (dose: 2.5 mg/kg/injection, schedule: Q01DX009 (ip), vehicle: saline + alcohol) 100 % of control; (dose: 5.0 mg/kg/injection, schedule: Q01DX009 (ip), vehicle: saline + alcohol) 114 % of control; (dose: 10.0 mg/kg/injection, schedule: Q01DX009 (ip), vehicle: saline + alcohol) 112 % of control.
For the compound `CCN(CC)CCn1[nH]c2c3ccc(=O)cc3sc3c(NCCN)ccc1c32`, the T/C was 161 % of control (dose: 1.56 mg/kg/injection, schedule: Q01DX009 (ip), vehicle: water); 189 % of control (dose: 1.7 mg/kg/injection, schedule: Q01DX009 (ip), vehicle: water); 225 % of control (dose: 2.7 mg/kg/injection, schedule: Q01DX009 (ip), vehicle: water); 270 % of control (dose: 4.5 mg/kg/injection, schedule: Q01DX009 (ip), vehicle: water); 281 % of control (dose: 7.5 mg/kg/injection, schedule: Q01DX009 (ip), vehicle: water); 161 % of control and 264 % of control under setting [12].
